ChEMBL document CHEMBL4346703, “Structure Overhaul Affords a Potent Purine PI3Kδ Inhibitor with Improved Tolerability” (J Med Chem, 2019)

What was measured:
[1] = Solubility of the compound; format: physicochemical
Phosphodiesterase 1 = Phosphodiesterase 1 (Homo sapiens, UniProt P54750+Q01064+Q14123); experiment: Inhibition of PDE1 (unknown origin); format: protein assay
[2] = Half-life in Wistar Han rat; format: ADME; settings: in vivo
[3] = target: High affinity cGMP-specific 3',5'-cyclic phosphodiesterase 9A (Homo sapiens, UniProt O76083); experiment: Inhibition of PDE9 (unknown origin)
Homo sapiens [4] = organism: Homo sapiens; experiment: (§1) Selectivity ratio of IC50 for N-terminal His6-tagged recombinant full length human PI3Kgamma expressed in baculovirus infected Sf21 cells to IC50 for N-terminal His6-tagged recombinant full length human p110delta/untagged recombinant full length human p85alpha expressed in baculovirus infected Sf21 insect cells
Homo sapiens [5] = organism: Homo sapiens; experiment: as §1, with “length human p110alpha/untagged recombinant full length human p85alpha expressed in” for “length human PI3Kgamma expressed in”, “infected Sf21 insect cells to” for “infected Sf21 cells to”
Homo sapiens [6] = organism: Homo sapiens; experiment: Selectivity ratio of IC50 for N-terminal His6-tagged recombinant full length human p110beta/untagged recombinant full length human p85alpha expressed in baculovirus infected Sf21 insect cells to N-terminal His6-tagged recombinant full length human p110delta/untagged recombinant full length human p85alpha expressed in baculovirus infected Sf21 insect cells
[7] = Intrinsic clearance in rat microsomes; format: ADME, Microsome
[8] = target: T1, Phosphatidylinositol 4,5-bisphosphate 3-kinase catalytic subunit delta isoform (Homo sapiens, UniProt O00329); experiment: Inhibition of PI3Kdelta in human whole blood assessed as reduction in antihuman IgE antibody-stimulated CD63 expression preincubated for 30 mins followed by antihuman IgE antibody stimulation and measured after 20 mins by FACS analysis; format: tissue-based
T1 sequence (O00329 whole entry): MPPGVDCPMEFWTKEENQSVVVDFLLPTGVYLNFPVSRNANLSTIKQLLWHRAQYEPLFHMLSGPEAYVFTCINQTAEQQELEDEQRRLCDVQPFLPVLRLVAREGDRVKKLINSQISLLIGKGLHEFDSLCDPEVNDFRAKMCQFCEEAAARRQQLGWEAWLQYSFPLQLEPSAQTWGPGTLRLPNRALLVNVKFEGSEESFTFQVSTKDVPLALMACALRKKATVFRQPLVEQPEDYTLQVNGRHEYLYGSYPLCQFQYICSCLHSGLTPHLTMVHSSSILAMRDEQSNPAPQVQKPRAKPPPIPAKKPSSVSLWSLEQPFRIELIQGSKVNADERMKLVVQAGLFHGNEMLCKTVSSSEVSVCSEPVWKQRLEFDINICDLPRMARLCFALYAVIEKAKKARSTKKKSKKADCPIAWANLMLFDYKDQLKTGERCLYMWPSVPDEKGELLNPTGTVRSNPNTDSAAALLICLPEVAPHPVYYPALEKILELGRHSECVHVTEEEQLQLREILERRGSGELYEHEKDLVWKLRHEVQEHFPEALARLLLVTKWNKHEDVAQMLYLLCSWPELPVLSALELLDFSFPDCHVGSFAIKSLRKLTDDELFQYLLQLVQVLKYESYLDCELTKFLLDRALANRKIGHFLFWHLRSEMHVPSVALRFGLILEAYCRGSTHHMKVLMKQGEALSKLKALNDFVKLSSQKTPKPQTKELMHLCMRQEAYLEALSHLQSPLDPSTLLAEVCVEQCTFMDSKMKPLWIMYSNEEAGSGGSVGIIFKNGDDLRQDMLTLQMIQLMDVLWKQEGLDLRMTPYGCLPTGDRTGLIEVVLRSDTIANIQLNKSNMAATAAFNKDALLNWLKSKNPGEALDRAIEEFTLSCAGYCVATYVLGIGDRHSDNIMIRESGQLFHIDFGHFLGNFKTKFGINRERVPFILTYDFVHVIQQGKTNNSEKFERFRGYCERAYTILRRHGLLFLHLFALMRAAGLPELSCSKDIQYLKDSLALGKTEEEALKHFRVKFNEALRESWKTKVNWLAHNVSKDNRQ

Cytochrome P450 = experiment: Inhibition of cytochrome P450 (unknown origin); format: ADME, protein assay; settings: human
[9] = Oral bioavailability in Wistar Han rat; format: ADME, organism-based; settings: in vivo
[10] = Drug recovery in rat urine after 24 hrs; format: ADME; settings: read-out: Drug recovery
[11] = fCmax in rat at 750 mg/kg administered for 4 days; format: ADME, organism-based; settings: in vivo, 96 h
[12] = Volume of distribution in Wistar Han rat; format: ADME; settings: in vivo
Phosphodiesterase 6 = experiment: Inhibition of PDE6 (unknown origin); format: protein assay, Homo sapiens
[13] = Plasma clearance in Beagle dog at 0.25 mg/kg, iv or 0.5 mg/kg, po; format: ADME, organism-based, Canis lupus familiaris
Phosphodiesterase 7 = Phosphodiesterase 7 (Homo sapiens, UniProt Q13946+Q9NP56); experiment: Inhibition of PDE7 (unknown origin); format: protein assay
[14] = Unbound volume of distribution in Wistar Han rat; format: ADME; settings: in vivo
[15] = Inhibition of adenosine transporter in human HeLa cells assessed as reduction in [3H]adenosine uptake preincubated for 30 mins followed by [3H]adenosine addition and measured after 60 mins; format: ADME, cell-based
[16] = Protein binding in Wistar Han rat plasma; format: ADME, cell-free; settings: read-out: PPB (converted)
Rattus norvegicus = experiment: Hemodynamic activity in telemetered rat assessed as effect on arterial blood pressure at 60 mg/kg; format: ADME, organism-based; settings: in vivo
[17] = Oral bioavailability in Beagle dog; format: ADME, organism-based, Canis lupus familiaris; settings: in vivo
[18] = target: PI3-kinase p110-alpha/p85-alpha (Homo sapiens, UniProt P42336); experiment: Inhibition of N-terminal His6-tagged recombinant full length human p110alpha/untagged recombinant full length human p85alpha expressed in baculovirus infected Sf21 insect cells using PIP2 as substrate preincubated for 15 mins followed by substrate addition and measured after 1 hr by HTRF assay
[19] = Half-life in Beagle dog; format: ADME, Canis lupus familiaris; settings: in vivo
[20] = fCmax in Beagle dog at 25 mg/kg administered for 8 days; format: ADME, organism-based, Canis lupus familiaris; settings: in vivo, 192 h
[21] = Cardiovascular toxicity in rat assessed as vascular injury at 750 mg/kg for 4 days; format: organism-based; settings: in vivo, 96 h
[22] = Lipophilicity, log D of the compound; format: physicochemical; settings: octanol/water
[23] = target: cGMP-dependent 3',5'-cyclic phosphodiesterase (Homo sapiens, UniProt O00408); experiment: Inhibition of PDE2 (unknown origin)
[24] = Protein binding in Beagle dog plasma; format: ADME, cell-free, Canis lupus familiaris; settings: read-out: PPB (converted)
[25] = target: High affinity cAMP-specific and IBMX-insensitive 3',5'-cyclic phosphodiesterase 8A (Homo sapiens, UniProt O60658); experiment: Inhibition of PDE8 (unknown origin)
[26] = Intrinsic clearance in Wistar Han rat at 0.5 mg/kg, iv or 1 mg/kg, po; format: ADME, organism-based; settings: in vivo
[27] = Toxicity in Beagle dogs assessed as vascular injury at 25 mg/kg administered for 8 days; format: organism-based, Canis lupus familiaris; settings: dog, in vivo, 192 h
[28] = target: PI3-kinase p110-delta/p85-alpha (Homo sapiens, UniProt O00329); experiment: Inhibition of N-terminal His6-tagged recombinant full length human p110delta/untagged recombinant full length human p85alpha expressed in baculovirus infected Sf21 insect cells using PIP2 as substrate preincubated for 15 mins followed by substrate addition and measured after 1 hr by HTRF assay
[29] = Unbound volume of distribution in Beagle dog; format: ADME, Canis lupus familiaris; settings: in vivo
Phosphodiesterase 4 = Phosphodiesterase 4 (Homo sapiens, UniProt P27815+Q08499+Q07343+Q08493); experiment: Inhibition of PDE4 (unknown origin); format: protein assay
[30] = Volume of distribution in Beagle dog; format: ADME, Canis lupus familiaris; settings: in vivo

Sequence of PI3-kinase p110-alpha/p85-alpha (P27986 whole entry): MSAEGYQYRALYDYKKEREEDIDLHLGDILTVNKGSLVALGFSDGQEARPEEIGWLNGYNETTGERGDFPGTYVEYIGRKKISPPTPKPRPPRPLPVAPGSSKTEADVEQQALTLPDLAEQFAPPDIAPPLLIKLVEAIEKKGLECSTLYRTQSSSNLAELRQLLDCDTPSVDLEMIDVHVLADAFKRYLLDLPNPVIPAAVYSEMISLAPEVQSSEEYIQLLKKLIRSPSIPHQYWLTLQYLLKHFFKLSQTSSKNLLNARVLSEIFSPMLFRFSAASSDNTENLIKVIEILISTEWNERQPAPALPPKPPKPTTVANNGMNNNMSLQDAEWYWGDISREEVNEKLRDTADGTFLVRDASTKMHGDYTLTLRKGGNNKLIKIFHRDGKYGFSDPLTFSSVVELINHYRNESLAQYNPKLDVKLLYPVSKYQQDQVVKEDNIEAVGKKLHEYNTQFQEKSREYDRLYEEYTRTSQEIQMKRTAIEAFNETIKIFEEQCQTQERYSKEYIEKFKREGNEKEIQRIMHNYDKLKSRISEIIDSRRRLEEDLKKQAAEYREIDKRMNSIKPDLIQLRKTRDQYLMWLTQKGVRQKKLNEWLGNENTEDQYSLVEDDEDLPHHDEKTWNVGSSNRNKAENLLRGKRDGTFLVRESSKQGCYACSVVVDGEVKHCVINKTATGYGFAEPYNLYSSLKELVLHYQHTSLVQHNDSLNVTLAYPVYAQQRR
Sequence of PI3-kinase p110-alpha/p85-alpha (P42336 whole entry): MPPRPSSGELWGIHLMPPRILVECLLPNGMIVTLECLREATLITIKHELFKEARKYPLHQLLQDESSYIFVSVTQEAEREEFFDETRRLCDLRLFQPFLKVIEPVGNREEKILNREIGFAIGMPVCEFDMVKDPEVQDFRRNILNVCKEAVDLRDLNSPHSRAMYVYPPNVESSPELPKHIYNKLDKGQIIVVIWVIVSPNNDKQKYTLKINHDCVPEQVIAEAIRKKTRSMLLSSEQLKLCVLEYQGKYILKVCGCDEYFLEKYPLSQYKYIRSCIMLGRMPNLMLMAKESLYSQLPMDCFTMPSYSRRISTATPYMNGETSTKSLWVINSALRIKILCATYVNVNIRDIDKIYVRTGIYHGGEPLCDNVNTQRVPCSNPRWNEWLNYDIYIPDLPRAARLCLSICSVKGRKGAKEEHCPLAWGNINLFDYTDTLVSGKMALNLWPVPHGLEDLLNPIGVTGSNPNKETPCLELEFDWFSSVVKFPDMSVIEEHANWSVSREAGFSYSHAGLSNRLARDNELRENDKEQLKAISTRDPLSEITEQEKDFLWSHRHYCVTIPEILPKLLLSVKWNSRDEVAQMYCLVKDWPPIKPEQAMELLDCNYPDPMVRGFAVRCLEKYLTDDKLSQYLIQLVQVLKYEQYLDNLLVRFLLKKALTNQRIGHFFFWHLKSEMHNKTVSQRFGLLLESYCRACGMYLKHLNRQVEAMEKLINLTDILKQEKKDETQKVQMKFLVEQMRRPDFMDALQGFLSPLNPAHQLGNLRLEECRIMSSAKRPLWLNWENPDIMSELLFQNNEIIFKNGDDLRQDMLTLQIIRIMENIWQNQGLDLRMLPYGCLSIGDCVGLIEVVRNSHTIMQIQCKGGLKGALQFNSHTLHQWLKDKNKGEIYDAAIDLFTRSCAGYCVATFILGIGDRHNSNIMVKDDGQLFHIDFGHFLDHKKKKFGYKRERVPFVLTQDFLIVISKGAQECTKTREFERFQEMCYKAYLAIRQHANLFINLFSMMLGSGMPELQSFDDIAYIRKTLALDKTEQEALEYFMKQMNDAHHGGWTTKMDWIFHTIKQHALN
Sequence of PI3-kinase p110-delta/p85-alpha (P27986 whole entry, one chain of several): as the sequence (P27986 whole entry) above
Sequence of cGMP-dependent 3',5'-cyclic phosphodiesterase (O00408 whole entry): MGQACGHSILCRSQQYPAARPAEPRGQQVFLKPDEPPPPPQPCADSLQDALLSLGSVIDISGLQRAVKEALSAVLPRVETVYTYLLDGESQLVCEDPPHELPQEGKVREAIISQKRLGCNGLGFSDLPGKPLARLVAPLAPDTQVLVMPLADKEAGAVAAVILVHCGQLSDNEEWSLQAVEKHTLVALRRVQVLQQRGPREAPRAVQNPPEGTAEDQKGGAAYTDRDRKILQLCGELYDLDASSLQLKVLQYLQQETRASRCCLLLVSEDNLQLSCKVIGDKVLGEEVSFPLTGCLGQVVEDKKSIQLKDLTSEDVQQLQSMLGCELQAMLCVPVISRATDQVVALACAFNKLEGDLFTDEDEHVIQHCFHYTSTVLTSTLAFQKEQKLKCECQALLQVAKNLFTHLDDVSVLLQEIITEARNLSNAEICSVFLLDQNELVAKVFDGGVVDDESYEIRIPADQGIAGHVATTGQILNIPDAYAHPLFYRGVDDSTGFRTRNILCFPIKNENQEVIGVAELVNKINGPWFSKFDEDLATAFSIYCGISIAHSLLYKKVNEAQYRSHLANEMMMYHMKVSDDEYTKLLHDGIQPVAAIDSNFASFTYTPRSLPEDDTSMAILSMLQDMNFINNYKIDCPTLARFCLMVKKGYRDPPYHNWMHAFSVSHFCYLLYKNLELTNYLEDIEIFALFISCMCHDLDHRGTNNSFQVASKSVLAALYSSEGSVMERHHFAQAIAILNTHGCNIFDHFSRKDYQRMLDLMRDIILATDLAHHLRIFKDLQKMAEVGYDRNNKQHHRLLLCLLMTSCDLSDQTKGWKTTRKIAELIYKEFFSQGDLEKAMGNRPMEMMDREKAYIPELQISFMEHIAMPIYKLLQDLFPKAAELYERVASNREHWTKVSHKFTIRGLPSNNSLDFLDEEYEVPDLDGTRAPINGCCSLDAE
Sequence of High affinity cGMP-specific 3',5'-cyclic phosphodiesterase 9A (O76083 whole entry): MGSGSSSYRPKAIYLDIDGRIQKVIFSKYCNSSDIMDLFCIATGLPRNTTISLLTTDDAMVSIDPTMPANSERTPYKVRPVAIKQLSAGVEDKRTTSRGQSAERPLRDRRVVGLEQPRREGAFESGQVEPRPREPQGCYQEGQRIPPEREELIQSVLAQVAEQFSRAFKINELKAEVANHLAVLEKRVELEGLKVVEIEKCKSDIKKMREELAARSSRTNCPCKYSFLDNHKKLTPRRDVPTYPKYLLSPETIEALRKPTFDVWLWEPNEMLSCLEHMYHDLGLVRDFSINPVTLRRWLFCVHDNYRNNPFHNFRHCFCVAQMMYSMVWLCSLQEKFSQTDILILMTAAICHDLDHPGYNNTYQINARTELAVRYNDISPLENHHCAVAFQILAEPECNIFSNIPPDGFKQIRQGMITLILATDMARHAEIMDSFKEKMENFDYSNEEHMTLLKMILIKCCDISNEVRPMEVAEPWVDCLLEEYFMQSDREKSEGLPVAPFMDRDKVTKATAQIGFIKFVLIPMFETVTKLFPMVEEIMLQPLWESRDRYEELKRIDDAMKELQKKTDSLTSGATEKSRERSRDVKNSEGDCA
Sequence of High affinity cAMP-specific and IBMX-insensitive 3',5'-cyclic phosphodiesterase 8A (O60658 whole entry): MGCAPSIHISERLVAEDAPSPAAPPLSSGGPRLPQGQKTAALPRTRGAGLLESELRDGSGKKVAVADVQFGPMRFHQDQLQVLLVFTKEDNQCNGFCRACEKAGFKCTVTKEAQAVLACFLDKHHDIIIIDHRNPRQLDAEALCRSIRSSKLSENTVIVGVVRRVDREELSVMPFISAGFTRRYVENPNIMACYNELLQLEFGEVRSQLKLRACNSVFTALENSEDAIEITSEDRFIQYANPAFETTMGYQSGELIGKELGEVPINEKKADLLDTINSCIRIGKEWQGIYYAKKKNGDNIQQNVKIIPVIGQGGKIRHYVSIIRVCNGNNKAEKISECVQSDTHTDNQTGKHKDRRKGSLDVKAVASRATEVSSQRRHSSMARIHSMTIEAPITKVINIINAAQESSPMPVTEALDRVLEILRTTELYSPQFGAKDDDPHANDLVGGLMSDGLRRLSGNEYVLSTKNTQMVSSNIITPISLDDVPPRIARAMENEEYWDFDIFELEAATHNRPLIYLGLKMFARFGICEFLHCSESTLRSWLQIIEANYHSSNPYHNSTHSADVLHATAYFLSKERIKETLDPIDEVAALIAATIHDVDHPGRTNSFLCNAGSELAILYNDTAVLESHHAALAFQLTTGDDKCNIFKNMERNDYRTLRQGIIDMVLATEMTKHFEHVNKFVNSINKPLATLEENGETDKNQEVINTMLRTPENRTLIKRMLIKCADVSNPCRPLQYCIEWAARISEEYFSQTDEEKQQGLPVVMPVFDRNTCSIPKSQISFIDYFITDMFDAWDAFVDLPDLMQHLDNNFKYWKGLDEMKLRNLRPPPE

For CCn1ncc(-c2nc3c(O[C@H]4CCN(C(=O)C5CCOCC5)C4)ncnc3n2C)c1C, the solubility [1] was over 10000 µg/mL, the IC50 (Phosphodiesterase 1) was over 50 µM and the half-life [2] was 0.8 h. For the same compound, the IC50 [3] was over 50 µM, the Ratio IC50 (Homo sapiens [4]) was 970 and the Ratio IC50 (Homo sapiens [5]) was 69. It also gave a Ratio IC50 (Homo sapiens [6]) of 1400, a CLint scaled [7] of under 110 mL/min/kg and an IC50 [8] of 0.415 µM. For the same compound, the “inhibition (INH)” value (Cytochrome P450) was “Not Active”, the bioavailability [9] was 55% and the dose excreted at 24 h [10] was 17%. The fCmax [11] was 200 µM, the Vd [12] was 1.2 L/kg and the IC50 (Phosphodiesterase 6) was over 50 µM. For the same compound, the clearance [13] was 5.8 mL/min/kg, the IC50 (Phosphodiesterase 7) was over 50 µM and the Vdu [14] was 2 L/kg. For the same compound, the IC50 [15] was over 10 µM, the fraction unbound [16] was 0.73 and the Activity (Rattus norvegicus) was “Non-Toxic”. The bioavailability [17] was 100%, the IC50 [18] was 0.27 µM and the half-life [19] was 1.5 h. For the same compound, the fCmax [20] was 46 µM, the Activity [21] was “Non-Toxic” and the logD [22] was 1.1. The IC50 [23] was over 50 µM, the fraction unbound [24] was 0.74 and the IC50 [25] was over 50 µM. The CL [26] was 126 mL/min/kg, the Activity [27] was “Non-Toxic” and the IC50 [28] was 0.0039 µM. It also gave a Vdu [29] of 3 L/kg, an IC50 (Phosphodiesterase 4) of over 50 µM and a Vd [30] of 0.9 L/kg.
